How the values were obtained:
AEG-1 promoter [1] = experiment: AEG-1 promoter luciferase reporter in primary human fetal astrocytes; format: cell-based; settings: PHFA, 0.1 to 100 μM
Text: (§1) Construction of plasmids: The full-length AEG-1 promoter DNA used in this analysis has a 3′ boundary 1 base-pair 5′ to the translation initiation site (ATG codon) of the AEG-1 gene (designated as nucleotide 1 in FIG. 7; SEQ ID NO:2) and extends 2759 bp upstream. The genomic DNA region corresponding to the AEG-1 promoter was isolated by PCR using the PCRx Enhancer System (Invitrogen, Carlsbad, Calif.) with forward primer: 5′-[…] -3′ (KpnI site underlined) (SEQ ID NO:4) and reverse primer: 5′-[…]-3′ (XhoI site underlined) 9SEQ ID NO:5). PCR conditions were as follows: Denaturation 95° C., 30 sec; annealing 55° C., 30 sec and extension 68° C., 3 min, repeated for 30 cycles. This region of genomic DNA was cloned into the luciferase reporter pGL-3 basic (Promega, Madison, Wis.) using restriction sites in KpnI and XhoI in the plasmid polylinker.
(§2) Other mediators of AEG-1 promoter activity. The HIV-Tat (Simm et al Virology 2002;294(1);1-12) and Nef (Lathi et al., Virology. 2003; 310(1):190-196) gene products were tested on the full length AEG-1 promoter at a plasmid expression vector concentration range of 50 to 800 ng/transfection point (FIG. 16). […] Thus, the AEG-1 promoter appears to be responsive to protein products produced by HIV infection of cells.

AEG-1 promoter [2] = experiment: AEG-1 promoter luciferase reporter in THV/THR astrocytes; format: cell-based, human
Text: as §1
(§3) Transient transfection and luciferase assay. CREF, CREF-ras, FM516, FM516-ras, THV and THR cells were plated on 24-well plates one day prior to transfection. […] Luciferase activity was measured and normalized against β-galactosidase activity produced by a co-transfected vector as described (17). […]
(§4) Effect of inhibition of PI3 Kinase, MEK kinase and p38 MAP kinase on AEG-1 promoter activity. Signal transduction pathways impinging on or directly downstream of the RAS pathway were analyzed to determine their effect on AEG-1 promoter activity (FIGS. 13 A-E). […]

AEG-1 promoter [3] = experiment: AEG-1 promoter luciferase reporter in C2 and C10 cell lines; format: cell-based, human
Text: as §1
Cell treatment with inhibitors. The PI3 kinase inhibitor LY294002, MEK inhibitor PD 98059 and p38 MAP Kinase inhibitor SB 203580 were used to treat cells at the indicated concentration and to determine the effect of inhibition of the respective pathway on AEG-1 promoter activity using the AEG-1 luciferase reporter.
The colorectal cancer cell line HCT116 which is mutated in the k-RAS gene was also tested for AEG-1 promoter activity in addition to two related cell lines. […]

AEG-1 promoter [4] = experiment: AEG-1 promoter luciferase reporter in CREF and CREF-ras fibroblasts; format: cell-based, rat
Text: as §1, §3, §4

EAAT2 promoter = settings: PHFA; cited from earlier work
AEG-1 [5] = settings: PHFA, by 7-days; cited from earlier work
AEG-1 promoter [6] = experiment: AEG-1 promoter luciferase reporter co-transfected with HIV Tat or Nef expression constructs; format: cell-based, human; settings: plasmid expression vector 50 to 800 ng/transfection point
Text: as §1, §2

[7] = tested on: glutamate transporter (EAAT2); settings: astrocytes; cited from earlier work
AEG-1 [8] = experiment: Western blot of AEG-1 protein after siRNA transfection; format: cell-based, human; settings: U87-MG and U251-MG cells transiently transfected, 24 hours
Description: Western blotting and immunofluorescence microscopy. Whole cell lysates were prepared and Western blotting was performed as described (17). Antibodies used in specific experiments are described in the text or in corresponding figure legends. For immunofluorescence microscopy, IM-PHFA, grown on chamber slides, were probed with anti-AEG-1 and anti-calreticulin primary antibodies and FITC-conjugated anti-chicken and rhodamine-conjugated anti-rabbit secondary antibodies, respectively. Alternatively, IM-PHFA were loaded with Mito-Tracker (Molecular probes) and then immunocytochemistry was performed using anti-AEG-1 antibody and rhodamine-conjugated anti-chicken secondary antibody. Cells were visualized using a Zeiss confocal laser scanning microscope (LSM510) and a 100× objective.
Construction of AEG-1 siRNA. The sequence (5′ AGCAGCCACCAGAGATTGA 3′) (SEQ ID NO:3) used for AEG-1 silencing corresponds to the 449-467 nucleotides of the AEG-1 ORF. The siRNA was constructed with Silencer™ siRNA kit according to manufacturer's protocol. A control scrambled siRNA was used to determine specificity of the inhibition and the sequence 5′ GGGTCGTCTA TAGGGATCGAT 3′(SEQ ID NO:10)
Effect of inhibition of AEG-1 on anchorage independent growth of malignant glioma cells. U87-MG and U251-MG cells were transiently transfected with siRNA for the AEG-1 gene and control scrambled siRNA using Lipofectamine. […]

U251-MG cells [9] = experiment: Soft agar cloning efficiency; format: cell-based, human; settings: transient transfection vs control scrambled siRNA
Description: (§5) Soft agar colony formation and Matrigel invasion assay. FM-516SV cells (2×10^5 cells/6-cm plate) plated the previous day were transfected with either pcDNA3.1, pcDNA3.1 AEG-1, T24 Ha-ras (20 μg each), or AEG-1/T24 Ha-ras (10+10 μg). Two days later, transfected cells were harvested by trypsinization and re-plated in soft agar (0.4%) overlaying 0.8% base agar. Two weeks later, colonies over ˜50 cells in soft agar were identified microscopically and counted. Soft agar colony formation assay was also performed with FM-516SV AEG-1 stable transfectants established by transfection of pcDNA3.1 AEG-1 and T24 Ha-ras and G418 selection.
(§6) Effect of inhibition of AEG-1 on anchorage independent growth of malignant glioma cells. U87-MG and U251-MG cells were transiently transfected with siRNA for the AEG-1 gene and control scrambled siRNA using Lipofectamine. 24 hours after transfection 1×10^5 cells from the transfection mixture were replated to determine agar cloning efficiency. In parallel, cell extracts were prepared for western blot analysis.

U87-MG cells [10] = experiment: Soft agar cloning efficiency; format: cell-based, human; settings: transient transfection vs control scrambled siRNA
Description: as §5, §6

U251-MG cells [11] = experiment: Matrigel invasion assay (Transwell); format: cell-based, human; settings: 72 h, vs control scrambled siRNA
Description: (§7) Matrigel invasion assay. Cell were cultured, transfected and harvested essentially as described above for soft-agar colony formation assays. Cells were mixed with Matrigel and plated on […] pore-size tissue culture inserts. After 72 h or a pre-optimized time depending on the cell line, Matrigel was removed and the inserts were stained with Geimsa stain to enumerate the number of cells that had passed through the tissue culture insert membrane.
(§8) Effect of inhibition of AEG-1 on invasiveness of malignant glioma cells. U87-MG and U251-MG cells were transiently transfected with siRNA for AEG-1 and with control scrambled siRNA using Lipofectamine. 24 hours after transfection cells were seeded in the upper compartment of a Transwell™ unit (Becton Dickinson) and then incubated for 72 h at 37° C. The lower compartment contained 0.5 ml of DMEM and 5% FBS. At the end of the invasion assay, the filters were removed, fixed, and stained.

U87-MG cells [12] = experiment: Matrigel invasion assay (Transwell); format: cell-based, human; settings: 72 h, vs control scrambled siRNA
Description: as §7, §8

Molecule: Nc1ncnc2c1nc(Br)n2[C@@H]1O[C@@H]2COP(=O)(O)O[C@H]2[C@H]1O [Bromo-cyclicAMP]
- AEG-1 promoter activity (luciferase) (AEG-1 promoter [1]): dose responsive stimulation

Molecule: COc1cccc(-c2cc(=O)c3ccccc3o2)c1N [PD 98059]
- AEG-1 promoter activity (luciferase) (AEG-1 promoter [2]; 20 and 50 μM): dose dependent inhibition
- AEG-1 promoter activity, responsiveness to inhibitor (AEG-1 promoter [3]): not responsive
- AEG-1 promoter activity (luciferase) (AEG-1 promoter [4]; 20 and 50 μM): dose dependent inhibition

Molecule: C[S+]([O-])c1ccc(-c2nc(-c3ccncc3)c(-c3ccc(F)cc3)[nH]2)cc1 (centres unmarked) [SB 203580]
- AEG-1 promoter activity (luciferase) (AEG-1 promoter [2]; 5 μM): inhibition of promoter activity was observed
- AEG-1 promoter activity (luciferase) (AEG-1 promoter [4]; 5 μM): inhibition of promoter activity was observed

Molecule: TNFα
- decrease of EAAT2 promoter activity (EAAT2 promoter): ~2.5 fold
- AEG-1 expression over control (AEG-1 [5]): 3 fold

Molecule: Tat gene product: HIV-Tat gene product expressed from a co-transfected plasmid expression vector
- stimulation of AEG-1 promoter activity (AEG-1 promoter [6]): 1.5 fold

Molecule: gp120: HIV-1 gp120 envelope protein used to treat astrocytes
- decrease of EAAT2 promoter activity (EAAT2 promoter): ~2.5 fold
- reduction in glutamate uptake [7]: ~60%
- AEG-1 expression over control (AEG-1 [5]): 3 fold

Molecule: siRNA for AEG-1: siRNA with sequence 5′ AGCAGCCACCAGAGATTGA 3′ (SEQ ID NO:3), corresponds to nucleotides 449-467 of the AEG-1 ORF (listed as DNA, chemistry not given here)
- AEG-1 protein knock down (Western blot) (AEG-1 [8]): efficient protein knock down
- agar cloning efficiency (U251-MG cells [9]): significantly inhibited
- agar cloning efficiency (U87-MG cells [10]): significantly inhibited
- Matrigel invasion (U251-MG cells [11]): significantly inhibited
- Matrigel invasion (U87-MG cells [12]): significantly inhibited
